Data: patent publication US20220324958A1, “ANTI-INFLAMMATORY PEPTIDES, PHARMACEUTICAL COMPOSITION CONTAINING SUCH PEPTIDES, AND USES THEREOF” (INSTITUTO BUTANTAN, priority 2019, published 2022)
No end group written: not given here.

How the values were obtained:
[1] = system: THP-1 cells differentiated into macrophages; assay: LPS-induced cytokine production in THP-1-derived macrophages (Multiplex); type: cell-based, human
Procedure: THP-1 cells differentiated into macrophages were induced with LPS (10 ng/mL) and, one hour later, treated with synthetic peptides at a concentration of 200 nM. Dexamethasone (10 μM), an inflammatory inhibitor, was used as a control. After 24 hours, the culture medium was collected to measure the IL-1β (A), IL-6 (B), TNF-α (C), and IL-10 cytokines using a Multiplex kit. * p<0.05 vs. LPS; ** p<0.01 vs. LPS; *** p<0.005 vs. LPS;
THP-1 cells differentiated into macrophages were induced with LPS (10 ng/mL) and, one hour later, treated with L4 or D3 peptide (0.05 μM, 0.2 μM, 1 μM, and 2 μM). After 24 hours, the culture medium was collected and TNF-alpha, IL-6, IL-23, and IL-8 were measured by Multiplex. (A) L4 peptide. (B) D3 peptide;
(§1) Macrophages were obtained from the differentiation of monocytes THP-1. Briefly, 1×10^7 cells were treated in the RPMI medium with 25 nM PMA for 48 hours followed by 24 hours of rest in medium without PMA. Subsequently, the cells were released and plated for the respective treatments.
The kit is based on Luminex® xMAP® technology that allows the simultaneous analysis of various cytokines. The technique is based on marked magnetic fluorescent spheres, known as MagPlex®-C microspheres. These microspheres are covered with capture antibodies specific for IL-6 […], and specifically capture the analyte in the supernatant. Each microsphere was individually identified and the results were analyzed using Luminex® Xponent® 4.2 acquisition software.
THP-1 cells differentiated into macrophages were induced with LPS (10 ng/mL) and, one hour later, treated with synthetic peptides, […] (inflammation inhibitor, 10 μM). After 24 hours, the culture medium was collected and IL-1β (A), IL-6 (B), TNF-α (C), and IL-10 were measured by Multiplex. * p<0.05 vs. LPS; ** p<0.01 vs. LPS; *** p<0.005 vs. LPS.
THP-1 cells differentiated into macrophages were induced with LPS (10 ng/mL) and, one hour after, treated with L4 (0.05 μM, 0.2 μM, 1 μM, and 2 μM). After 24 hours, the culture medium was collected and TNF-α, IL-6, IL-23, and IL-8 were measured by Multiplex. (A) L4 peptide. (B) D3 peptide.

[2] = system: neurons obtained from SHSY5Y cells; assay: Anti-nociceptive/anti-inflammatory model, neurons stimulated with IL-1β: substance P and β-endorphin in supernatant; type: cell-based
Procedure: ANOVA and Dunnet ** p<0.01, *** p<0.001 compared to IL-1β;
(§2) The differentiation process consists of 6 stages distributed over 7 days. On the first day of the differentiation protocol (day 0), cells were seeded in collagen-coated plates. On days 1, 3, and 4 the culture medium was removed, and the differentiation medium containing 2% fetal bovine serum (FBS) and retinoic acid (RA) 10 μM) was added. On day 5, the medium was removed and the culture was incubated with culture medium and brain-derived neurotrophic factor (BDNF) (50 ng/mL). On day 7 of the differentiation process, differentiated neurons are fully ready for use (Agholme et al., 2010, with some modifications).
(§3) 7×10^3 neurons/well were incubated with 10 μM of morphine (inhibitory response control) or peptides (200 nM and 500 nM) 3 hours before or 3 hours after incubation with IL-1β (10 ng/mL) or glycated collagen (GC) (100 μg/mL) (both positive controls for the release of substance P). After 24 hours of incubation, the cell viability assay and the detection of substance P and β-endorphin in the supernatant were performed. Multiplex with magnetic spheres (MILLIPLEX® MAP Magnetic Bead Panel)
ANOVA and Dunnet ** p<0.01, *** p<0.001 compared to […]

[3] = system: human chondrocytes (NHAC-kn); assay: Pro-inflammatory model of chondrocytes treated with IL-1β, cytokine release (Multiplex); type: cell-based; conditions: chondrocytes treated with IL-1β (1 ng/mL)
Procedure: Values were obtained from each analyte in pg/mL from treatment with the peptides in the presence of IL-1β (1 ng/mL). The data are presented as the mean±MSE (* p<0.05 when compared to the control with IL-1β, test t, n=3).
(B) Chondrocytes were pretreated for 1 hour with IL-1β (1 ng/mL) before the addition of peptides (200 nM, 500 nM, and 1.25 μM) and an additional incubation of 24 hours before collecting the supernatants.
The primary human chondrocytes used in this assay were purchased from Lonza: Normal Human Articular Primary chondrocytes (NHAC-Kn, #CC-2550, Lot 8F3336). Chondrocyte cell culture was performed in bottles (Sarstedt T175 and T75). The cells were cultivated in DMEM culture medium (Sigma) supplemented with 10% fetal bovine serum (FBS) (Sigma), incubated in an oven at 37° C. and 5% CO2, and cultures were used in the sixth passage. The culture medium was changed every two days until the culture reached 80% confluence.
The identification and quantitative analysis of the cytokines present in the peptide treatment supernatant were performed using the Luminex xMAP Milliplex MAP Human Cytokine/Chemokine Magnetic Bead Panel Catalog #HCYTOMAG-60K technology, according to the manufacturer's instructions.
Values were obtained from each analyte in pg/mL from treatment with the peptides in the presence of IL-1β (1 ng/mL). The data are presented as the mean±MSE (*p<0.05 when compared to the control with IL-1β, test t, n=3).

[4] = system: neurons obtained from SHSY5Y cells; assay: Anti-nociceptive/anti-inflammatory model, neurons stimulated with glycated collagen (GC): substance P and β-endorphin in supernatant; type: cell-based; conditions: peptide 200 nM incubated 3 hours after GC (100 μg/mL)
Procedure: ANOVA and Dunnet * p<0.05; ** p<0.01 compared to glycated collagen (GC);
ANOVA and Dunnet * p<0.05 ** p<0.01, *** p<0.001 compared with GC;
as §2, §3
ANOVA and Dunnet * p<0.05; ** p<0.01 compared to GC.
ANOVA and Dunnet * p<0.05 ** p<0.01, *** p<0.001 compared to GC.

[5] = system: macrophages derived from THP-1; assay: Cell viability (MTT) of macrophages derived from THP-1; type: cell-based, human
Procedure: as §1
The evaluation of metabolically active cells was performed using the colorimetric assay of [3-(4,5-dimethylthiazol-2-yl)-2,5-diphenyl tetrazolium] bromide (MTT, Sigma-Aldrich, St. Louis, USA), as previously reported (Twentyman et al., 1987). After each incubation period, the supernatant was removed and a MTT solution (0.5 mg/mL in phosphate-buffered saline—PBS) was added, and the cells incubated at 37° C. and 5% CO2 for 3 hours (Yang et al., 2012). After this period, the solution was removed and crystals of dark blue formazan were solubilized with 1 mL of dimethyl sulfoxide (DMSO, Merck, Darmstad) for 5 minutes. Quantification of formazan was done using an automatic ELISA microplate reader (SLT, Austria) at 570 nm.

[6] = LPS 10 ng/mL, peptide 200 nM one hour later, 24 hours, vs group treated only with LPS
[7] = dose-response 0.05, 0.2, 1 and 2 μM, LPS 10 ng/mL, 24 hours
[8] = peptide 200 nM added 3 hours after IL-1β (10 ng/mL)

Sequence | levels of IL-10 (anti-inflammatory cytokine) ([1]; LPS 10 ng/mL, peptide 200 nM one hour later, 24 hours) | levels of IL-1β [1, 6] | levels of IL-6 [1, 6] | levels of TNF-a [1, 6] | best dose regarding IL-6 release [1, 7] | best dose regarding IL-8 release [1, 7] | most effective dose concerning IL-23 release [1, 7] | most effective dose concerning TNF-α release [1, 7] | production of inflammatory cytokines in response to LPS (dose-dependent) ([1]; dose-response 0.05-2 μM, TNF-α, IL-6, IL-23, IL-8) | production of Substance P [2, 8] | production of β-endorphin [2, 8] | production of substance P induced by IL-1β ([2]; peptide 200 nM added 3 hours before IL-1β (10 ng/mL)) | anti-inflammatory activity (release of G-CSF, GM-CSF, IL-6, IL-8, MCP-1, TNF-α) [3] | production of Substance P [4] | production of β-endorphin [4] | viability of macrophages derived from THP-1 [5]
DYWHDGHDLN (Designated peptide based on the motif of a group of proteins called hemoline from lepidoptera acting as an anti-inflammatory molecule.) [D3] | reduced | significantly reducing | significantly reducing | significantly reducing | 1 µM | 1 µM | 1 µM | 1 µM | reduced | inhibit | induced | significantly inhibited | anti-inflammatory activity | significantly inhibited | increased | –
YAIGYSCKDYK [P4, YAIGYSCKDYK] | – | – | – | – | – | – | – | – | – | – | – | – | – | – | – | no effect
